Assay results as given in patent EP3628672A1 (priority 2018, dated 2020).
Like-named read-outs stand apart in the source and are kept apart here.

What was measured:
[1] = molecular target: T1, purified LasB protein from P. aeruginosa (Pseudomonas aeruginosa, UniProt P14756); assay: Fluorometric assay to determine Ki (Abz-Ala-Gly-Leu-Ala-p-Nitro-Benzyl-Amide substrate); assay type: biochemical
T1 construct: purchased Merck or Charles River Laboratories
Summary of the method: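 Purified P. aeruginosa LasB (10–140 ng/ml) with 250 µM Abz-Ala-Gly-Leu-Ala-p-nitrobenzylamide in 50 mM Tris-HCl pH 7.4, 2.5 mM CaCl2, 0.01% Triton X100, 37 °C; hydrolysis fluorescence (Ex 340/Em 415 nm) followed over 30 min, inhibitor 0.0016–200 µM. Ki = IC50/(1+[S]/Km), Km 214 µM.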

LasB = molecular target: T2, LasB (Pseudomonas aeruginosa, UniProt P14756); assay: Elastin assay to determine % inhibition (Elastin Congo-Red, dialysed culture supernatant); assay type: biochemical, P. aeruginosa PAO1; details: read-out: Elastin hydrolysis % inhibition @ 50 / 25 µM inhibitor concentration
T2 construct: uses as source of enzyme dialysed supernatant from P. aeruginosa PAO1; endogenous in cells; host or cells: P. aeruginosa PAO1 culture supernatant, filtered and dialysed
T2 sequence (P14756 198-498): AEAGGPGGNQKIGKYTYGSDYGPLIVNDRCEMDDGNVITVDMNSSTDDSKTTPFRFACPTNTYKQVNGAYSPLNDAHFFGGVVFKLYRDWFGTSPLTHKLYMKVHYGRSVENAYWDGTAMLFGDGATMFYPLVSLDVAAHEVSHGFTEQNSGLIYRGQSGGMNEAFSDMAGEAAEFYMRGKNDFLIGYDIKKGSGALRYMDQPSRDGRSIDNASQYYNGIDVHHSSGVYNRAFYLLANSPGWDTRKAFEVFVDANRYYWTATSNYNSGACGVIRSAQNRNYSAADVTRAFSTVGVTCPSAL
Summary of the method: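 Enzyme source was dialysed PAO1 culture supernatant (50 mM Tris-HCl pH 7.4, 2.5 mM CaCl2), mixed with Elastin Congo-Red and 0.01% Triton X-100. Compound was routinely 50 to 1.56 µM, incubated overnight at 37 °C with shaking. Dye release at OD495 gave % inhibition relative to DMSO and no-enzyme controls.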

[2] = Ki calculated from IC50, [S] = 250 µM, Km = 214 µM, 37°C, pH 7.4

T1 sequence (P14756 198-498): as above

| SMILES | Ki [1] | inhibition at 25 µM (LasB) | Ki [1, 2] |
| --- | --- | --- | --- |
| COc1cc(OCCc2n(C)cc[n+]2C)ccc1-c1csc(CNC(=O)C2(CC(=O)[O-])Cc3cc(F)c(F)cc3C2)n1 [Example 86, 2-[2-[[4-[4-[2-(1,3-dimethylimidazol-1-ium-2-yl)ethoxy]-2-methoxy-phenyl]thiazol-2-yl]methylcarbamoyl]-5,6-difluoro-indan-2-yl]acetate] | 50 to 200 nM | 60 to 75% |  |
| Cn1cc[n+](C)c1CCOc1ccc(-c2csc(CNC(=O)C3(CC(=O)[O-])Cc4ccccc4C3)n2)cc1 [Example 87, 2-[2-[[4-[4-[2-(1,3-dimethylimidazol-1-ium-2-yl)ethoxy]phenyl]thiazol-2-yl]methylcarbamoyl]indan-2-yl]acetate] | 50 to 200 nM | 10 to 60% |  |
| COc1cc(OCCN2CCN(C(C)=O)CC2)ccc1-c1csc(CNC(=O)C2(CC(=O)O)Cc3ccccc3C2)n1 [Example 88] | < 50 nM | > 75% |  |
| Cn1cc(-c2csc(CNC(=O)C3(CC(=O)O)Cc4ccccc4C3)n2)cn1 [Example 89, 2-[2-[[4-(1-methylpyrazol-4-yl)thiazol-2-yl]methylcarbamoyl]indan-2-yl]acetic acid] | 50 to 200 nM | 60 to 75% |  |
| Cn1ccc(-c2csc(CNC(=O)C3(CC(=O)O)Cc4ccccc4C3)n2)n1 [Example 90, 2-[2-[[4-(1-methylpyrazol-3-yl)thiazol-2-yl]methylcarbamoyl]indan-2-yl]acetic acid] | 200 to 10000 nM | 60 to 75% |  |
| Cc1c(-c2csc(CNC(=O)C3(CC(=O)O)Cc4ccccc4C3)n2)cnn1C [Example 91, 2-[2-[[4-(1,5-dimethylpyrazol-4-yl)thiazol-2-yl]methylcarbamoyl]indan-2-yl]acetic acid] | 50 to 200 nM | > 75% |  |
| Cn1nccc1-c1csc(CNC(=O)C2(CC(=O)O)Cc3ccccc3C2)n1 [Example 92, 2-[2-[[4-(2-methylpyrazol-3-yl)thiazol-2-yl]methylcarbamoyl]indan-2-yl]acetic acid] | 50 to 200 nM | 60 to 75% |  |
| Cc1nn(C)cc1-c1csc(CNC(=O)C2(CC(=O)O)Cc3ccccc3C2)n1 [Example 93, 2-[2-[[4-(1,3-dimethylpyrazol-4-yl)thiazol-2-yl]methylcarbamoyl]indan-2-yl]acetic acid] | 50 to 200 nM | 60 to 75% |  |
| O=C(O)CC1(C(=O)NCc2nc(-c3cncnc3)cs2)Cc2ccccc2C1 [Example 94, 2-[2-[(4-pyrimidin-5-ylthiazol-2-yl)methylcarbamoyl]indan-2-yl]acetic acid] | 200 to 10000 nM | 60 to 75% |  |
| O=C(O)CC1(C(=O)NCc2nc(-c3ccncc3)cs2)Cc2ccccc2C1 [Example 95, 2-[2-[[4-(4-pyridyl)thiazol-2-yl]methylcarbamoyl]indan-2-yl]acetic acid] | 200 to 10000 nM | 60 to 75% |  |
| O=C(O)CC1(C(=O)NCc2nc(-c3cnn(CCN4CCOCC4)c3)cs2)Cc2ccccc2C1 [Example 96, 2-[2-[[4-[1-(2-morpholinoethyl)pyrazol-4-yl]thiazol-2-yl]methylcarbamoyl]indan-2-yl]acetic acid] | 50 to 200 nM | 60 to 75% |  |
| Cc1cc(-c2csc(CNC(=O)C3(CC(=O)O)Cc4ccccc4C3)n2)n[nH]1 [Example 98, 2-[2-[[4-(5-methyl-1H-pyrazol-3-yl)thiazol-2-yl]methylcarbamoyl]indan-2-yl] acetic acid] | 200 to 10000 nM | 60 to 75% |  |
| O=C(O)CC1(C(=O)NCc2nc(-c3cnn(CCCN4CCOCC4)c3)cs2)Cc2ccccc2C1 [Example 99, 2-[2-[[4-[1-(3-morpholinopropyl)pyrazol-4-yl]thiazol-2-yl]methylcarbamoyl]indan-2-yl]acetic acid] | 50 to 200 nM | 60 to 75% |  |
| CN1CCN(C(=O)Cn2cc(-c3csc(CNC(=O)C4(CC(=O)O)Cc5ccccc5C4)n3)cn2)CC1 [Example 101] |  | 60 to 75% | 200 to 10000 nM |
| CN1CCC(n2cc(-c3csc(CNC(=O)C4(CC(=O)O)Cc5ccccc5C4)n3)cn2)CC1 [Example 102, 2-[2-[[4-[1-(1-methyl-4-piperidyl)pyrazol-4-yl]thiazol-2-yl]methylcarbamoyl]indan-2-yl]acetic acid] | 200 to 10000 nM | 60 to 75% |  |
| CN(C)CC(=O)N1CCC(n2cc(-c3csc(CNC(=O)C4(CC(=O)O)Cc5ccccc5C4)n3)cn2)CC1 [Example 103, 2-[2-[[4-[1-[1-[2-(dimethylamino)acetyl]-4-piperidyl]pyrazol-4-yl]thiazol-2-yl]methylcarbamoyl]indan-2-yl]acetic acid] | 200 to 10000 nM | 60 to 75% |  |
| CN1CCN(C(=O)N2CCC(n3cc(-c4csc(CNC(=O)C5(CC(=O)O)Cc6ccccc6C5)n4)cn3)CC2)CC1 [Example 104, 2-[2-[[4-[1-[1-(4-methylpiperazine-1-carbonyl)-4-piperidyl]pyrazol-4-yl]thiazol-2-yl]methylcarbamoyl]indan-2-yl]acetic acid] | 50 to 200 nM | 60 to 75% |  |
| CN1CCN(C(=O)CN2CCC(n3cc(-c4csc(CNC(=O)C5(CC(=O)O)Cc6ccccc6C5)n4)cn3)CC2)CC1 [Example 105, 2-[2-[[4-[1-[1-[2-(4-methylpiperazin-1-yl)-2-oxo-ethyl]-4-piperidyl]pyrazol-4-yl]thiazol-2-yl]methylcarbamoyl]indan-2-yl]acetic acid] | 50 to 200 nM | 60 to 75% |  |
| CC(=O)N1CCN(CCCn2cc(-c3csc(CNC(=O)C4(CC(=O)O)Cc5ccccc5C4)n3)cn2)CC1 [Example 106, 2-[2-[[4-[1-[3-(4-acetylpiperazin-1-yl)propyl]pyrazol-4-yl]thiazol-2-yl]methylcarbamoyl]indan-2-yl]acetic acid] | 50 to 200 nM | 60 to 75% |  |
| CN1CCN(CCCn2cc(-c3csc(CNC(=O)C4(CC(=O)O)Cc5ccccc5C4)n3)cn2)CC1 [Example 108, 2-[2-[[4-[1-[3-(4-methylpiperazin-1-yl)propyl]pyrazol-4-yl]thiazol-2-yl]methylcarbamoyl]indan-2-yl]acetic acid] | 50 to 200 nM | 60 to 75% |  |
| O=C(O)CC1(C(=O)NCc2nc(-c3cnn(CCCN4CCCOCC4)c3)cs2)Cc2ccccc2C1 [Example 109, 2-[2-[[4-[1-[3-(1,4-oxazepan-4-yl)propyl]pyrazol-4-yl]thiazol-2-yl]methylcarbamoyl]indan-2-yl]acetic acid] | 50 to 200 nM | 60 to 75% |  |
| COC1CCN(CCCn2cc(-c3csc(CNC(=O)C4(CC(=O)O)Cc5ccccc5C4)n3)cn2)CC1 [Example 110, 2-[2-[[4-[1-[3-(4-methoxy-1-piperidyl)propyl]pyrazol-4-yl]thiazol-2-yl]methylcarbamoyl]indan-2-yl]acetic acid] | 50 to 200 nM | 60 to 75% |  |
| CN1CCN(C(=O)N2CCN(CCCn3cc(-c4csc(CNC(=O)C5(CC(=O)O)Cc6ccccc6C5)n4)cn3)CC2)CC1 [Example 112, 2-[2-[[4-[1-[3-[4-(4-methylpiperazine-1-carbonyl)piperazin-1-yl]propyl]pyrazol-4-yl]thiazol-2-yl]methylcarbamoyl]indan-2-yl]acetic acid] | 50 to 200 nM | 60 to 75% |  |
| CN1CCC(C(=O)N2CCN(CCCn3cc(-c4csc(CNC(=O)C5(CC(=O)O)Cc6ccccc6C5)n4)cn3)CC2)CC1 [Example 114, 2-[2-[[4-[1-[3-[4-(1-methylpiperidine-4-carbonyl)piperazin-1-yl]propyl]pyrazol-4-yl]thiazol-2-yl]methylcarbamoyl]indan-2-yl]acetic acid] | 50 to 200 nM | 60 to 75% |  |
| CN1CCN(CCCn2cc(-c3csc(CNC(=O)C4(CC(=O)O)Cc5ccccc5C4)n3)cn2)CC1=O [Example 116, 2-[2-[[4-[1-[3-(4-methyl-3-oxo-piperazin-1-yl)propyl]pyrazol-4-yl]thiazol-2-yl]methylcarbamoyl]indan-2-yl]acetic acid] | 50 to 200 nM | 60 to 75% |  |
| CC(=O)N1CCN(CCn2cc(-c3csc(CNC(=O)C4(CC(=O)O)Cc5ccccc5C4)n3)cn2)CC1 [Example 119, 2-[2-[[4-[1-[2-(4-acetylpiperazin-1-yl)ethyl]pyrazol-4-yl]thiazol-2-yl]methylcarbamoyl]indan-2-yl]acetic acid] | 50 to 200 nM | 60 to 75% |  |
| C[n+]1ccc(Cn2cc(-c3csc(CNC(=O)C4(CC(=O)[O-])Cc5ccccc5C4)n3)cn2)cc1 [Example 120, 2-[2-[[4-[1-[(1-methylpyridin-1-ium-4-yl)methyl]pyrazol-4-yl]thiazol-2-yl]methylcarbamoyl]indan-2-yl]acetate] | 50 to 200 nM | 60 to 75% |  |
| COc1ccc(-c2csc(CNC(=O)C3(CC(=O)O)Cc4ccccc4C3)n2)cc1S(=O)(=O)N1CCC(N(C)C)CC1 [Example 121, 2-[2-[[4-[3-[[4-(dimethylamino)-1-piperidyl]sulfonyl]-4-methoxy-phenyl]thiazol-2-yl]methylcarbamoyl]indan-2-yl]acetic acid] | 50 to 200 nM | 60 to 75% |  |
| COc1ccc(-c2csc(CNC(=O)C3(CC(=O)O)Cc4ccccc4C3)n2)cc1S(=O)(=O)N1CCN(C)CC1 [Example 122] |  | > 75% | 50 to 200 nM |
